Laboratory results from patent US20240358861A1, “COMPOSITIONS AND METHODS OF FLUORESCEIN SODIUM FOR EARLY DIAGNOSIS OF CERVICAL CANCER” (THE MOEIN FAMILY TRUST, priority 2023, published 2024).

Legend:
[1] = system: cervix (cervical lesions); assay: Colposcopy with AA then FNa staining, histopathology (biopsy) as reference diagnosis; type: in vivo, human; conditions: for Accuracy: correlation of staining with biopsy report; for Sensitivity / Specificity: diagnosis of high grade SIL or worse per histopathology; for Number of patients, stain negative, Total / Number of patients, stain positive, Total: all biopsies
Experimental: The FNa formulation is applied in 3 steps, each using either a cotton swab or plastic pipette for delivery and continuing until all solution is dispensed: a) Pre-rinse with 10 mL of normal saline to remove cervical mucus. b) Apply 10 mL of a FNa delivery solution over the cervix. Solution in the posterior cul-de-sac is picked up with the pipette and resprayed, at least once, then discarded. c) after imaging or diagnosis, post-rinse with 10 mL of normal saline.

cervix = assay: Staining properties of FNa versus AA when tested; design: species or system human; conditions: in vivo
Text: In some embodiments, FNa staining may be observed with an unaided eye. Using FNa as a staining agent enables use in low resource settings where access to a colposcope is not possible.

cervical lesions (CIN) = assay: Lesion grade stained, shown by p16, Ki67 and c-myc FISH staining of specimens; design: species or system human

Molecule O=C1OC2(c3ccc(O)cc3Oc3cc(O)ccc32)c2ccccc21 [FNa, Fluorescein (3′,6′-dihydrospiro[isobenzofuran-1(3H),9′-[9H]xanthene]-3-one) sodium] has a Number of patients ([1]; No pap smear (n = 5), stain Negative, Benign biopsy n = 6) of 0, a Number of patients ([1]; No pap smear (n = 5), stain Negative, High grade biopsy (n = 26)) of 0 and a Number of patients ([1]; No pap smear (n = 5), stain Negative, Invasive (n = 5)) of 0. It also gave a Number of patients ([1]; No pap smear (n = 5), stain Negative, Low grade Biopsy (n = 41)) of 1, a Number of patients ([1]; No pap smear (n = 5), stain Negative, all) of 1 and a Number of patients ([1]; No pap smear (n = 5), stain Positive, Benign biopsy n = 6) of 0. For the same molecule, the Number of patients ([1]; No pap smear (n = 5), stain Positive, High grade biopsy (n = 26)) was 1, the Number of patients ([1]; No pap smear (n = 5), stain Positive, Invasive (n = 5)) was 0 and the Number of patients ([1]; No pap smear (n = 5), stain Positive, Low grade Biopsy (n = 41)) was 3. It also gave a Number of patients ([1]; No pap smear (n = 5), stain Positive, all) of 4, a Number of patients ([1]; Pap smear High grade (n = 22), stain Negative, Benign biopsy n = 6) of 2 and a Number of patients ([1]; Pap smear High grade (n = 22), stain Negative, High grade biopsy (n = 26)) of 0. For the same molecule, the Number of patients ([1]; Pap smear High grade (n = 22), stain Negative, Invasive (n = 5)) was 0, the Number of patients ([1]; Pap smear High grade (n = 22), stain Negative, Low grade Biopsy (n = 41)) was 0 and the Number of patients ([1]; Pap smear High grade (n = 22), stain Negative, all) was 2. For the same molecule, the Number of patients ([1]; Pap smear High grade (n = 22), stain Positive, Benign biopsy n = 6) was 0, the Number of patients ([1]; Pap smear High grade (n = 22), stain Positive, High grade biopsy (n = 26)) was 12 and the Number of patients ([1]; Pap smear High grade (n = 22), stain Positive, Invasive (n = 5)) was 3. For the same molecule, the Number of patients ([1]; Pap smear High grade (n = 22), stain Positive, Low grade Biopsy (n = 41)) was 5, the Number of patients ([1]; Pap smear High grade (n = 22), stain Positive, all) was 20 and the Number of patients ([1]; Pap smear Invasive (n = 5), stain Negative, Benign biopsy n = 6) was 0. The Number of patients ([1]; Pap smear Invasive (n = 5), stain Negative, High grade biopsy (n = 26)) was 0, the Number of patients ([1]; Pap smear Invasive (n = 5), stain Negative, Invasive (n = 5)) was 0 and the Number of patients ([1]; Pap smear Invasive (n = 5), stain Negative, Low grade Biopsy (n = 41)) was 0. The Number of patients ([1]; Pap smear Invasive (n = 5), stain Negative, all) was 0, the Number of patients ([1]; Pap smear Invasive (n = 5), stain Positive, Benign biopsy n = 6) was 0 and the Number of patients ([1]; Pap smear Invasive (n = 5), stain Positive, High grade biopsy (n = 26)) was 4. For the same molecule, the Number of patients ([1]; Pap smear Invasive (n = 5), stain Positive, Invasive (n = 5)) was 1, the Number of patients ([1]; Pap smear Invasive (n = 5), stain Positive, Low grade Biopsy (n = 41)) was 0 and the Number of patients ([1]; Pap smear Invasive (n = 5), stain Positive, all) was 5. The Number of patients ([1]; Pap smear Low grade (n = 46), stain Negative, Benign biopsy n = 6) was 4, the Number of patients ([1]; Pap smear Low grade (n = 46), stain Negative, High grade biopsy (n = 26)) was 0 and the Number of patients ([1]; Pap smear Low grade (n = 46), stain Negative, Invasive (n = 5)) was 0. For the same molecule, the Number of patients ([1]; Pap smear Low grade (n = 46), stain Negative, Low grade Biopsy (n = 41)) was 3, the Number of patients ([1]; Pap smear Low grade (n = 46), stain Negative, all) was 7 and the Number of patients ([1]; Pap smear Low grade (n = 46), stain Positive, Benign biopsy n = 6) was 0. For the same molecule, the Number of patients ([1]; Pap smear Low grade (n = 46), stain Positive, High grade biopsy (n = 26)) was 9, the Number of patients ([1]; Pap smear Low grade (n = 46), stain Positive, Invasive (n = 5)) was 1 and the Number of patients ([1]; Pap smear Low grade (n = 46), stain Positive, Low grade Biopsy (n = 41)) was 29. For the same molecule, the Number of patients ([1]; Pap smear Low grade (n = 46), stain Positive, all) was 39, the Accuracy [1] was “Accuracy = 94%” and the Sensitivity [1] was 94%. The Specificity [1] was 86%, the “Number of patients, stain negative, Total” value [1] was 10 and the “Number of patients, stain negative, biopsy Ca, HG, LG” value [1] was 4. The “Number of patients, stain positive, Total” value [1] was 68, the “Number of patients, stain positive, biopsy Ca, HG, LG” value [1] was 67 and the Burning sensation (cervix) was “did not cause the same burning sensation”.

For CC(=O)O [AA, acetic acid], the “More false positives than the other stain” value ([1]; AA versus FNa, patients with low grade SIL per histopathology) was “three”, the “Number of patients Acetic acid positive” value ([1]; No pap smear (n = 5)) was 5 and the “Number of patients Acetic acid positive” value ([1]; Pap smear High grade (n = 22)) was 20. The “Number of patients Acetic acid positive” value ([1]; Pap smear Invasive (n = 5)) was 5, the “Number of patients Acetic acid positive” value ([1]; Pap smear Low grade (n = 46)) was 44 and the Accuracy [1] was “Accuracy = 94%”. The Sensitivity [1] was 94%, the Specificity [1] was 43% and the “Missed high grade lesions” value ([1]; in vivo) was “Neither AA nor FNa missed any high grade lesions”. The “Number of patients, stain negative, Total” value [1] was 4, the “Number of patients, stain negative, biopsy Ca, HG, LG” value [1] was 1 and the “Number of patients, stain positive, Total” value [1] was 74. For the same molecule, the “Number of patients, stain positive, biopsy Ca, HG, LG” value [1] was 70, the Burning sensation (cervix) was “burning sensation that AA causes” and the Lesion grades stained (cervical lesions (CIN)) was “stains any lesion from CIN 1 and worse”.
